Parameters in all cases: scale not given: the % may be the effect or the level left
Assay [1] addresses T1, Glutamate NMDA receptor (Rattus norvegicus) (UniProt P35439+Q00959+Q00960+Q00961+Q62645+Q8VHN2+Q9R1M7). Put plainly: Compound tested for its ability to inhibit [3H]- -L-Glu binding to N-methyl-D-aspartate glutamate receptor at the concentration of 20 uM. The assay is classed as protein-complex assay.
In assay [2] the target is T1, Glutamate NMDA receptor (Rattus norvegicus). Put plainly: Compound tested for its ability to inhibit [3H]- -L-Glu binding to N-methyl-D-aspartate glutamate receptor at the concentration of 100 uM. The assay is classed as protein-complex assay.
Assay [3] has as its target Glutamate receptor ionotropic, kainate 2 (Rattus norvegicus) (UniProt P42260). As to the kind of experiment: Compound tested for its ability to inhibit [3H]- KA binding to ionotropic glutamate receptor kainate at the concentration of 100 uM.
For a further assay, the species on record is Rattus norvegicus. As to the kind of experiment: Comparative inhibition of L-Glutamate uptake at the concentration of 5 uM of [3H]-L- glutamate radioligand. It counts as functional.

Chain of Glutamate receptor ionotropic, kainate 2 (Rattus norvegicus) (P42260 whole entry): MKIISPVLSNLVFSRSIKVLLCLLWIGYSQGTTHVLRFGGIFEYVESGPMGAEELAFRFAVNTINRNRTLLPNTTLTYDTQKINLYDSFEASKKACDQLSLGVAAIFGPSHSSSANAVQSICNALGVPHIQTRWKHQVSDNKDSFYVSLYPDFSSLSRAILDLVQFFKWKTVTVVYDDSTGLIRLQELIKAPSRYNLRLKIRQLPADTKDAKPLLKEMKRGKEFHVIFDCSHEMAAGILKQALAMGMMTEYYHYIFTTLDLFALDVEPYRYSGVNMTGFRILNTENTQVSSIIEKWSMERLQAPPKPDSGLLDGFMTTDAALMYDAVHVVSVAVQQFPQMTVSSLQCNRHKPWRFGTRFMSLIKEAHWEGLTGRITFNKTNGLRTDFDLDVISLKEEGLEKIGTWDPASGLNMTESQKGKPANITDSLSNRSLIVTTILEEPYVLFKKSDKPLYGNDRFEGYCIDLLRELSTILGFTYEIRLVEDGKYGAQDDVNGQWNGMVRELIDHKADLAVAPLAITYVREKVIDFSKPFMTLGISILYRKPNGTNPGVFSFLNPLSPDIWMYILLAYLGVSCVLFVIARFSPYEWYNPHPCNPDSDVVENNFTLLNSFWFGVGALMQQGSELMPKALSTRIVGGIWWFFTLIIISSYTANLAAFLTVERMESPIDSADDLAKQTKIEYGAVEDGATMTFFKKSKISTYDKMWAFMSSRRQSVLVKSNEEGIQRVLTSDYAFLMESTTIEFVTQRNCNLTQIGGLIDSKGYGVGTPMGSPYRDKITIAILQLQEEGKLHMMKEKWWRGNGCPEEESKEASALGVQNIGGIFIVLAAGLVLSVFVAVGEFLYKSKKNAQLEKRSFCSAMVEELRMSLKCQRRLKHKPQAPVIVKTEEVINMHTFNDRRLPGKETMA

Turning to `O=C(O)[C@H]1CN[C@@H](C(=O)O)C1`, the Control in assay [1] turned out to be 76%; in assay [2], 38%; in assay [3], 101%.
Take `CC(C)[C@H]1CN[C@H](C(=O)O)[C@H]1CC(=O)O` [DIHYDROKAINATE]: the Control in the assay filed under Rattus norvegicus worked out at 93%.
Turning to `O=C(O)[C@@H]1CN[C@H](C(=O)O)C1`, the Control worked out at 89% in assay [2] and 100% in assay [3].
In the assay listed under Rattus norvegicus, `N[C@H](CC(=O)O)C(=O)O` [D-ASPARTATE] returned a Control of 58%.
Consider `O=C(O)[C@@H]1CN[C@@H](C(=O)O)C1`, for which the figures for the Control in assay [2] and in assay [3] were 95% and 92%, respectively.
Regarding `O=C(O)[C@H]1CN[C@H](C(=O)O)C1`, the results for the Control (in assay [2]; in assay [3]; in the assay listed under Rattus norvegicus) were 87%, 102% and 45%, respectively.
